From patent US20210161788A1, “Anti-Blue Light Dermal Topical Composition and Applications Thereof” (Taiwan AC Scientific Inc., priority 2019, published 2021)

Experiments:
[1] = system: Human Skin; experiment: Evaluation of the effect on human skin by the Janus facial analysis system; type: in vivo; details: 3% solution applied on skin
Description: Evaluation method: A subject who has applied the 3% terephthalylidene dicamphor sulfonic acid solution on skin surfaces for seven straight days is tested by the Janus facial analysis system for status change of their skin.

[2] = Penetration rates of UV, blue light and visual light and shading rate of blue light, UV/blue-light detector; type: physicochemical; details: for Penetration rate UV: 380-400 nm; for Penetration rate BL: 405-425 nm; for Penetration rate VL: 520-540 nm; for Shading rate of blue light: VL penetration minus BL penetration
Description: Solutions with different concentrations prepared by terephthalylidene dicamphor sulfonic acid are tested with a UV/blue-light detector (Actor-Mater Co., Ltd.) for penetration rates of ultraviolet (UV), blue light (BL) and visual light (VL). The shading rate of blue light is calculated by the formula as follows:
Shading rate of blue light (%)=penetration rate of visual light−penetration rate of blue light
where wavelength ranges of UV, blue light and visual light tested with a UV/blue-light detector (Actor-Mater Co., Ltd.) are 380-400 nm, 405-425 nm and 520-540 nm, respectively.
The 3% terephthalylidene dicamphor sulfonic acid solution (B) and the 3% rutoside solution (C) are prepared by ingredients as shown in formulas in Table 4. Referring to test modes in Embodiment 1 to Embodiment 3, the anti-blue light effects and the shading rates of blue light for solutions (B) and (C) are tested, respectively.
The synergistic effect of rutoside and terephthalylidene dicamphor sulfonic acid on anti-blue light is explored in this embodiment. Prepared by rutoside and terephthalylidene dicamphor sulfonic acid, the mixed solutions with different concentrations are tested for shading rates of blue light according to the test mode as shown in Embodiment 3.

Penetration rate UV ([2]; 0.5% (W/W) solution): 3.00 ± 0.00% | Penetration rate BL ([2]; 0.5% (W/W) solution): 87.33 ± 0.58% | Penetration rate VL ([2]; 0.5% (W/W) solution): 99.00 ± 0.00% | Shading rate of blue light ([2]; 0.5% (W/W) solution): 11.67 ± 0.58% | Penetration rate UV ([2]; 1% (W/W) solution): 1.67 ± 0.58% | Penetration rate BL ([2]; 1% (W/W) solution): 77.00 ± 1.00% | Penetration rate VL ([2]; 1% (W/W) solution): 98.67 ± 0.58% | Shading rate of blue light ([2]; 1% (W/W) solution): 21.67 ± 0.58% | Penetration rate UV ([2]; 3% (W/W) solution): 0.00 ± 0.00% | Penetration rate BL ([2]; 3% (W/W) solution): 50.00 ± 1.00% | Penetration rate VL ([2]; 3% (W/W) solution): 97.33 ± 0.58% | Shading rate of blue light ([2]; 3% (W/W) solution): 47.33 ± 0.58% | Penetration rate UV ([2]; 5% (W/W) solution): 0.00 ± 0.00% | Penetration rate BL ([2]; 5% (W/W) solution): 42.33 ± 0.58% | Penetration rate VL ([2]; 5% (W/W) solution): 97.33 ± 0.58% | Shading rate of blue light ([2]; 5% (W/W) solution): 55.00 ± 1.00% | Penetration rate UV ([2]; 10% (W/W) solution): 0.00 ± 0.00% | Penetration rate BL ([2]; 10% (W/W) solution): 26.33 ± 1.15% | Penetration rate VL ([2]; 10% (W/W) solution): 95.00 ± 1.00% | Shading rate of blue light ([2]; 10% (W/W) solution): 68.67 ± 0.58% | Penetration rate UV ([2]; 20% (W/W) solution): 0.00 ± 0.00% | Penetration rate BL ([2]; 20% (W/W) solution): 16.00 ± 1.00% | Penetration rate VL ([2]; 20% (W/W) solution): 93.00 ± 1.00% | Shading rate of blue light ([2]; 20% (W/W) solution): 77.00 ± 0.00% | Average shading rate of blue light ([2]; content of anti-blue light substances in a solution 1%): 22% | Average shading rate of blue light ([2]; content of anti-blue light substances in a solution 3%): 47%
Compound: CC1(C)C2CCC1(CS(=O)(=O)O)C(=O)C2=Cc1ccc(C=C2C(=O)C3(CS(=O)(=O)O)CCC2C3(C)C)cc1 (stereo in doubt) [terephthalylidene dicamphor sulfonic acid]
Reduction of the total average of fine wrinkles ([1]; after 7 straight days vs before use): 7% | Count of melanin pigmentations at the forehead ([1]; after 7 straight days, before use 42): 25 | Count of melanin pigmentations at one side of the face ([1]; after 7 straight days, before use 49): 42 | Count of melanin pigmentations at cheeks ([1]; after 7 straight days, before use 56): 44 | Fine wrinkles under eyelids ([1]; after 7 straight days, before use 57): 54 | Total average fine wrinkles ([1]; after 7 straight days, before use 82): 75 | Crow's feet ([1]; after 7 straight days, before use 100): 88
